Experiment [1] deals with AKT1 (AKT serine/threonine kinase 1). The experiment can be described thus: Gene expression experiment (real-time PCR) in SH-SY5Y cells: AKT1. The class given is cell-based. Conditions: for expression of AKT1: 24 h. On the procedure:
SH-SY5Y cells were seeded in 100 mm-cell dishes (BD Biocoat) at concentrations of 3.7×10^5 cells/mL (10 mL/dish) and cultured for 24 h at 37° C. and 5% CO2. Culture medium used was F12/DMEM (Gibco) supplemented with 1% non-essential amino acids (Gibco), 15% FBS (Bio West), and 1% penicillin/streptomycin (Lonza). After 24 h, the culture medium was completely removed with an aspirator, 10 mL of culture medium Opti-MEM(Gibco) was added to each dish, and the cells were cultured for 24 h at 37° C. and 5% CO2. RNA was extracted from the culture cells and analyzed for the expression of genes described below by real-time PCR (designated as “Control” in FIGS. 2 to 8).
RNA extraction was performed using ISOGEN Reagent (Nippon Gene Co., Ltd.) in accordance with the protocol recommended by Nippo n Gene Co., Ltd. (see URL: https://www.nippongene.com/siyaku/product/extraction/tds/tds_isogen-rna-dna-protein.pdf). Real-time PCR was performed according to the protocol recommended by Thermo Fisher Scientific using a reagent kit for TaqMan Real-Time PCR (Thermo Fisher Scientific) (see URL: https://assets.thermofisher.com/TFS-Assets/LSG/manuals/4304449_TaqManPCRMM_UG.pdf).
24 h after seeding 100 mm-cell dishes (BD Biocoat) with SH-SY5Y cells, the culture medium was completely removed with an aspirator, amyloid β protein (Beta-Amyloid 1-42, AnaSpec) was mixed with Opti-MEM (Gibco) so that the final concentration was 5 μM, 10 mL of the mixture was added to each dish, the cells were cultured for 24 h at 37° C. and 5% CO2, and RNA was extracted. Except for performing the procedure described above, gene expression was analyzed as described above (designated as “Aβ” in FIGS. 2 to 8).
24 h after seeding 100 mm-cell dishes (BD Biocoat) with SH-SY5Y cells, the culture medium was completely removed with an aspirator, Sample 1 was mixed with culture medium Opti-MEM(Gibco) so that the final concentration was 12.56 μM, 9,990 μL of the mixture was added to each dish and allowed to stand for 10 min, amyloid β protein (Beta-Amyloid 1-42, AnaSpec) was mixed with Opti-MEM (Gibco) so that the final concentration was […], 10 μL of the mixture was added to each well, the cells were cultured for 24 h at 37° C. and 5% CO2, and RNA was extracted. Except for performing the procedure described above, Gene expression was analyzed as described above (designated as “Aβ+M3,5G” in FIGS. 2 to 8).
Except that Sample 2 was used instead of Sample 1, gene expression was analyzed as described above (designated as “Aβ+M” in FIGS. 2 to 8).
Except that Sample 3 was used instead of Sample 1, gene expression was analyzed as described above (designated as “Aβ+M3G” in FIGS. 2 to 8).
24 h after seeding 100 mm-cell dishes (BD Biocoat) with SH-SY5Y cells, the culture medium was completely removed with an aspirator, 10 mL of culture medium Opti-MEM(Gibco) mixed with Sample 1 was added to each dish, the cells were cultured for 24 h at 37° C. and 5% CO2, and RNA was extracted. Except for performing the procedure described above, gene expression was analyzed as described above (designated as “M3,5G” in FIGS. 2 to 8).
A general note: Real-time PCR tracks product formation cycle by cycle.

Experiment [2] deals with SH-SY5Y cells. The experiment is described as follows: Cell survival experiment (MTT), cell death induced by amyloid β protein. As to conditions: compound 12.56 μM, 72 h, compared to “Aβ”. The class given is cell-based. The procedure:
Each well of a 96-well plate (BD Biocoat) was seeded with SH-SY5Y cells (model of neuronal cells, ATCC) at a concentration of 2×10^5 cells/mL (100 μL/well) and the cells were cultured at 37° C. and 5% CO2 for 24 h. Culture medium used was F12/DMEM (Gibco) supplemented with 1% non-essential amino acids (Gibco), 15% FBS (Bio West), and 1% penicillin/streptomycin (Lonza).
After 24 h, the culture medium was completely removed with an aspirator, 100 μL of culture medium Opti-MEM (Gibco) was added to each well, and the cells were cultured at 37° C. and 5% CO2 for 24 h. […]
Absorbance at 570 nm was measured on a microplate reader (Sumitomo Dainippon Pharma) to measure the MTT formazan production to calculate % relative cell survival (designated as “Control” in FIG. 1).
24 h after seeding a 96-well plate (BD Biocoat) with SH-SY5Y cells, the culture medium was completely removed with an aspirator, amyloid β protein (Beta-Amyloid 1-42, AnaSpec) was mixed with Opti-MEM (Gibco) so that the final concentration was 15 μM, 100 μL of the mixture was added to each well, and the cells were cultured at 37° C. and 5% CO2 for 72 h to induce cell death. Except for performing the procedure described above, the MTT formazan production was measured as described above to calculate % relative cell survival (designated as “Aβ” in FIG. 1). […]

As to `COc1cc(-c2[o+]c3cc(O)cc(OC4OC(CO)C(O)C(O)C4O)c3cc2OC2OC(CO)C(O)C(O)C2O)cc(OC)c1O` (centres unmarked) [M3,5G, Malvidin-3,5-diglucoside chloride], the “expression of AKT1” value in experiment [1] (12.56 μM, amyloid β protein-treated cells, compared to “Aβ”) is reported as “significantly high”; in experiment [1] (12.56 μM, amyloid β protein-treated cells, compared to “Control”), “significantly high”; in experiment [1] (Sample 1 alone, no amyloid β, compared to “Control”), “significantly increased”. Besides, in experiment [1] (amyloid β protein-treated cells, 12.56 μM, ranked against malvidin and malvidin-3-glucoside), the “activity in increasing the expression of AKT1” value is “highest activity”. Also, in experiment [2], the “% relative cell survival” value was “significantly high”.

These data come from patent publication US20220241308A1, “NEURONAL FUNCTION MODULATING AGENT” (University of Tsukuba, priority 2019, published 2022).
